Where “and” joins values, the source holds several entries; their conditions need not be identical. Equal values may be shown once. Read-outs that look alike come from different tables or passages of the source.
What was measured:
HIV-1 NL4-3 w.t. virus = experiment: microbe, parasite or virus in culture; type: cell-based; conditions: for Fold Change, W.T.: Table 11, NL4-3
[1] = Cellular cytotoxicity, 4 days, MTS, H9; type: cell-based; conditions: human, Table 21, read-out: Average CC50 Values ± Standard Deviation, H9
Description: (§1) Cell viability was measured by standard MTT or MTS staining.
(§2) Following drug exposure for 4 days, cell viability was measured by MTS staining and CC50 values were determined. Drug concentrations ranged from 0.005 μM to 100 μM.

[2] = system: HIV-1 K103N clinical isolates 4937 and 5002; experiment: microbe, parasite or virus in culture; type: cell-based; conditions: Human immunodeficiency virus 1, PBMC, read-out: Average EC50 Values ± Standard Deviation, K103N
HIV-1 BH10 in U937 cells = experiment: Drug susceptibility assay, BH10 in U937 cells; type: cell-based
Excerpt: The virus and host-cell dependency of Compound I, Compound III and control drugs was further examined in drug susceptibility assays performed across 3 different subtype B wild-type HIV-1 strains and 5 different cell lines.

[3] = Cellular cytotoxicity, 4 days, MTS, MT-2; type: cell-based; conditions: human, Table 21, read-out: Average CC50 Values ± Standard Deviation, MT-2
Description: as §1, §2

in vitro = experiment: in vitro
Description: Cell viability was determined via MTT staining.

HIV-1 NL4-3 K103N virus = experiment: microbe, parasite or virus in culture; type: cell-based; conditions: for EC50: Human immunodeficiency virus 1, NL43, MT4, read-out: Average EC50 Values ± Standard Deviation, K103N; for Fold Change, K103N: Table 11, NL4-3
[4] = target: T1, human DNA polymerase gamma (Homo sapiens, UniProt P54098); experiment: Human cellular DNA polymerase gamma assay; type: biochemical
T1 sequence (P54098 1-1239): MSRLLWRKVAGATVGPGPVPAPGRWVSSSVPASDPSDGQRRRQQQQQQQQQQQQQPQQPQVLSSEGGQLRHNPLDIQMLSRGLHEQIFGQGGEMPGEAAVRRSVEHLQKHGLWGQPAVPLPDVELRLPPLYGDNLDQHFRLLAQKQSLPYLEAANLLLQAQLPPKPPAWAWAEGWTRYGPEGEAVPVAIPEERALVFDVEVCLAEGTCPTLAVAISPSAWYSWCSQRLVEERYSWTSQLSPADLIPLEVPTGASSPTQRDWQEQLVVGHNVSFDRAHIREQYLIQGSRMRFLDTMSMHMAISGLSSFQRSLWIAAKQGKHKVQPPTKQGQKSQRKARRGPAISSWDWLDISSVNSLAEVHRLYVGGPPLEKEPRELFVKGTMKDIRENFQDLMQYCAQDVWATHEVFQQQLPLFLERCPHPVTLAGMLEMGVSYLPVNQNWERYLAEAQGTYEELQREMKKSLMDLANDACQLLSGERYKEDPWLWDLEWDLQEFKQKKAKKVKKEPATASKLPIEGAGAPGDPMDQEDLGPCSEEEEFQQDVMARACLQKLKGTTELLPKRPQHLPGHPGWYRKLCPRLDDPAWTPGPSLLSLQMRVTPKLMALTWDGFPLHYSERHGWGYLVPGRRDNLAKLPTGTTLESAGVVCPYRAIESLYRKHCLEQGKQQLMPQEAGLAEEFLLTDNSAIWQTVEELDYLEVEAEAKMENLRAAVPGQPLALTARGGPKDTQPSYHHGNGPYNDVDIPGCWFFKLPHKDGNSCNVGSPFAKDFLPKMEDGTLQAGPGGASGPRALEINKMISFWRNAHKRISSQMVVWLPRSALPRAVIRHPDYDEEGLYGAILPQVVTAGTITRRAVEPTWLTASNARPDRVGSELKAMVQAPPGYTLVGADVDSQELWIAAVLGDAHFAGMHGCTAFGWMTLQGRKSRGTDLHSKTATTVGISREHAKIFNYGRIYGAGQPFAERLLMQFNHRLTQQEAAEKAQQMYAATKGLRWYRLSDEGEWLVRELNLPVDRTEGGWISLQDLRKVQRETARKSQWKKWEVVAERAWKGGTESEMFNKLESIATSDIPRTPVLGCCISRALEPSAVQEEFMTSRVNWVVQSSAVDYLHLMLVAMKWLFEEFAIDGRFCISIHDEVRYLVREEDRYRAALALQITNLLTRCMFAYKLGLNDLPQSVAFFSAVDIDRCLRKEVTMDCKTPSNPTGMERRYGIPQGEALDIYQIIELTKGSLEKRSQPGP
Excerpt: HIV RT, like other viral polymerase, shares limited structural homology with the cellular DNA polymerases responsible for normal nuclear and mitochondrial DNA synthesis and repair. This raises the formal possibility that inhibitors of HIV RT might inhibit cellular polymerases, resulting in cellular toxicity. In particular, inhibition of polymerase gamma has the potential to result in mitochondrial toxicity. The ability of Compound I and Compound III to inhibit cellular DNA polymerases was assessed using standard in vitro assays (Table 5).

[5] = Plasma protein binding by equilibrium dialysis, rat; type: in vitro ADME; conditions: for fraction unbound: rat, read-out: Percentage Plasma Protein Binding, Rats
Description: The in vitro plasma protein binding of compound I and compound III in rat, dog, monkey and human plasma was determined by equilibrium dialysis. Protein binding was assessed by equilibrium dialysis using rat, dog, monkey and human plasma. Samples were assayed by HPLC with LC-MS/MS detection. Plasma protein binding was high (>99%) for all species and for both compounds.

CYP2D6 = CYP2D6 (Homo sapiens, UniProt P10635); experiment: Human liver microsomal CYP450 inhibition, CYP2D6; conditions: for IC50, CYP2D6: human liver microsomes
Description: (§3) In addition, the type of inhibition was also evaluated.
(§4) Enzyme kinetic studies of cytochrome P450 isozyme inhibition were conducted using human liver microsomes.

CYP2B6 = target: T2, CYP2B6 (Homo sapiens, UniProt P20813); experiment: Human liver microsomal CYP450 inhibition, CYP2B6; conditions: for IC50, CYP2B6: human liver microsomes
T2 sequence (P20813 1-491): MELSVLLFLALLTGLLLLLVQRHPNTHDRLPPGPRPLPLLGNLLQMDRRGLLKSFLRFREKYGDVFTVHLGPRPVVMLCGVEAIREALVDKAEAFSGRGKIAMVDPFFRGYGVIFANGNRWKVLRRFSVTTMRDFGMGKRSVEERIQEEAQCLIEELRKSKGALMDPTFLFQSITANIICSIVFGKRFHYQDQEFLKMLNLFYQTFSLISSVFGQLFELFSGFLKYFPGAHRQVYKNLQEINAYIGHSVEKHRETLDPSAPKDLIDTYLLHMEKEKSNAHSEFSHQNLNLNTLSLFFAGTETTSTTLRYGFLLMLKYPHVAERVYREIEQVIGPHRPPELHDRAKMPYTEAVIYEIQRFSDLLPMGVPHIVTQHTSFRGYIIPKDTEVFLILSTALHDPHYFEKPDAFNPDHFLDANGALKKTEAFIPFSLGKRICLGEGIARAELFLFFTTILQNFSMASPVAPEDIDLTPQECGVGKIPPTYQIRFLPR
Description: as §3, §4

[6] = Human immunodeficiency virus 1, NL43, MT4, read-out: Average EC50 Values ± Standard Deviation, W.T.
[7] = Human immunodeficiency virus 1, NL43, MT4, read-out: Average EC50 Values ± Standard Deviation, host MT-4, virus NL4-3
[8] = H9 cells (lymphoblastic T cells)
[9] = Human immunodeficiency virus 1, U-937, Table 17, read-out: Average EC50 Values ± Standard Deviation, host U937, virus BH10
[10] = Table 5, preliminary data from a single experiment, read-out: Average IC50 Values, DNA Pol Gamma

Chain of CYP2D6 (P10635 whole entry): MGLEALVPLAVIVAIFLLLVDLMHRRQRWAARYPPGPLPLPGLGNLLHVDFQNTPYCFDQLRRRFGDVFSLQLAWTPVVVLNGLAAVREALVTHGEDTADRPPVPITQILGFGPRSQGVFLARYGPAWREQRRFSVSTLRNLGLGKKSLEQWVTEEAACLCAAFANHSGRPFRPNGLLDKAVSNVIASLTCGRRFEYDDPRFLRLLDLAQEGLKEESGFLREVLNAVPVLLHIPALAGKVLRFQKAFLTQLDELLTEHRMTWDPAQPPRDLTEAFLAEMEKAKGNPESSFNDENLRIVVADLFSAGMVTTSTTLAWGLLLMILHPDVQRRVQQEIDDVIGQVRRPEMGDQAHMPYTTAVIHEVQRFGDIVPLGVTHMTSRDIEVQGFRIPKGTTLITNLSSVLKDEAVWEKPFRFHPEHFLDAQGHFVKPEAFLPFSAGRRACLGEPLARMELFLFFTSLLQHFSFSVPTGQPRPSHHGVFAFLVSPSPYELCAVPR

## O=C1Nc2ccc(Cl)cc2C(C#CC2CC2)(C(F)(F)F)O1 (stereo not drawn) [EFV, 6-chloro-4-cyclopropylethynyl-4-trifluoromethyl-1,4-dihydro-2H-3,1-benzoxazin-2-one, reference compound]
HIV-1 NL4-3 w.t. virus; [6]
  EC50: 0.0023 ± 0.0002 µM
HIV-1 NL4-3 w.t. virus; [7]
  EC50: 0.0023 ± 0.0002 µM
[1]; [8]
  CC50 at 4 days: 50 ± 9 µM
[2]
  EC50: 0.0414 ± 0.0369 µM
HIV-1 BH10 in U937 cells; [9]
  EC50: 0.0019 ± 0.0008 µM
[3]; MT-2 cells (leukemia T cells)
  CC50 at 4 days: 24.6 ± 4.5 µM
In vitro
  CC50 at 3 days: 70.9 ± 7.6 µM
HIV-1 NL4-3 K103N virus
  EC50: 0.0612 ± 0.0338 µM
[4]; [10]
  IC50: 116 µM
[4]; Table 6, N=4, read-out: Mean IC50 Values ± Standard Deviation, DNA Pol Gamma
  IC50: ≥ 100 µM

## CO[P@](=O)(c1cc(C)cc(/C=C/C#N)c1)c1c(C(N)=O)[nH]c2ccc(Cl)cc12 [Compound III, (2-Carbamoyl-5-chloro-1H-indol-3-yl)-[3-((E)-2-cyano-vinyl)-5-methyl-phenyl]-(R)-phosphinic acid methyl ester]
HIV-1 NL4-3 w.t. virus; [6]
  EC50: 0.0017 ± 0.0003 µM
HIV-1 NL4-3 w.t. virus; [7]
  EC50: 0.0017 ± 0.0003 µM
HIV-1 NL4-3 w.t. virus
  Fold Change, W.T.: 1 fold
[1]; [8]
  CC50 at 4 days: 31.3 ± 5.2 µM
[2]
  EC50: 0.0009 ± 0.0004 µM
HIV-1 BH10 in U937 cells; [9]
  EC50: 0.0013 ± 0.0006 µM
[3]; MT-2 cells (leukemia T cells)
  CC50 at 4 days: 25.9 ± 2.1 µM
In vitro; human, stimulated primary blood mononuclear cells (PBMC)
  CC50 at 3 days: 66.9 µM
[5]
  Percentage Plasma Protein Binding, Rats: 99.4%
[5]; rat plasma
  fraction unbound: < 0.01
HIV-1 NL4-3 K103N virus
  EC50: 0.0015 ± 0.0003 µM
  Fold Change, K103N: 0.9 ± 0.2 fold
[4]; [10]
  IC50: ≥ 60 µM and 60.1 µM
CYP2D6
  IC50: > 20 µM
  IC50, CYP2D6: not observed
CYP2B6
  IC50: > 20 µM
  IC50, CYP2B6: not observed

## CO[P@](=O)(c1cc(C)cc(/C=C/C#N)c1)c1c(C(N)=O)[nH]c2ccc(Cl)c(F)c12 [Compound I, (2-Carbamoyl-5-chloro-4-fluoro-1H-indol-3-yl)-[3-((E)-2-cyano-vinyl)-5-methyl-phenyl]-(R)-phosphinic acid methyl ester]
HIV-1 NL4-3 w.t. virus; [6]
  EC50: 0.002 ± 0.0001 µM
HIV-1 NL4-3 w.t. virus; [7]
  EC50: 0.002 ± 0.0001 µM
HIV-1 NL4-3 w.t. virus
  Fold Change, W.T.: 1 fold
[1]
  CC50 at 4 days: 20 ± 1.6 µM
[2]
  EC50: 0.0007 ± 0.0003 µM
HIV-1 BH10 in U937 cells; Human immunodeficiency virus 1, U-937, read-out: Average EC50 Values ± Standard Deviation, host U937, virus BH10
  EC50: 0.0006 ± 0.0002 µM
[3]
  CC50 at 4 days: 23.5 ± 1 µM
In vitro
  CC50 at 3 days: 52.6 µM
[5]
  Percentage Plasma Protein Binding, Rats: 99.1%
[5]; plasma
  fraction unbound: < 0.01
HIV-1 NL4-3 K103N virus
  EC50: 0.0014 ± 0.0004 µM
  Fold Change, K103N: 0.7 ± 0.2 fold
[4]; Average IC50 Values, DNA Pol Gamma, Table 5, preliminary data from a single experiment
  IC50: 118 µM
[4]; Mean IC50 Values ± Standard Deviation, DNA Pol Gamma, Table 6, N=4
  IC50: 118 µM
CYP2D6
  IC50: > 20 µM
  IC50, CYP2D6: not observed
CYP2B6
  IC50: > 20 µM
  IC50, CYP2B6: not observed

Reference: patent publication US8486991B2, “Enantiomerically pure phosphoindoles as HIV inhibitors” (Idenix Pharmaceuticals, Inc., priority 2006, dated 2013)
